Data reported in ChEMBL document CHEMBL1201862, “PubChem BioAssay data set” (2004).
Activity calls are given as the source filed them. Rule as the data show it, for most assays here: actives have a measured EC50 and inactives only a lower limit.

Experiments:
[1] = target: T1, Type-1 angiotensin II receptor (Homo sapiens, UniProt P30556); assay: antagonism of angiotensin II type 1 receptor – cell-based, uHTS hits, selectivity assay for APJ receptor antagonist project, dose response (AID 463214); assay type: functional;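 also: antagonist potency against angiotensin II stimulated AT1 response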
T1 sequence (P30556 whole entry): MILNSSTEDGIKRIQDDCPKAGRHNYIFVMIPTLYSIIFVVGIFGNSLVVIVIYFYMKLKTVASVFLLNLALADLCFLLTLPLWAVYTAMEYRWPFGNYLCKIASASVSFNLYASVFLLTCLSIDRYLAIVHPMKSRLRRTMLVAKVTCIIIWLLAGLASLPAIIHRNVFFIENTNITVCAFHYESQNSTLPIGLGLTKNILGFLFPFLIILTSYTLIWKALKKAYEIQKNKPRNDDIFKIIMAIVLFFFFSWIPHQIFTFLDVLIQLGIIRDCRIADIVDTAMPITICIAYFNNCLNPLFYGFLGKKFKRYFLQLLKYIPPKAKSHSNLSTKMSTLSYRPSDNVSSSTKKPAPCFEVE

Beta-galactosidase = Beta-galactosidase (Escherichia coli, UniProt Q8VNN2); assay: PubChem AID 485352; assay type: functional
Chain of Beta-galactosidase (Q8VNN2 whole entry): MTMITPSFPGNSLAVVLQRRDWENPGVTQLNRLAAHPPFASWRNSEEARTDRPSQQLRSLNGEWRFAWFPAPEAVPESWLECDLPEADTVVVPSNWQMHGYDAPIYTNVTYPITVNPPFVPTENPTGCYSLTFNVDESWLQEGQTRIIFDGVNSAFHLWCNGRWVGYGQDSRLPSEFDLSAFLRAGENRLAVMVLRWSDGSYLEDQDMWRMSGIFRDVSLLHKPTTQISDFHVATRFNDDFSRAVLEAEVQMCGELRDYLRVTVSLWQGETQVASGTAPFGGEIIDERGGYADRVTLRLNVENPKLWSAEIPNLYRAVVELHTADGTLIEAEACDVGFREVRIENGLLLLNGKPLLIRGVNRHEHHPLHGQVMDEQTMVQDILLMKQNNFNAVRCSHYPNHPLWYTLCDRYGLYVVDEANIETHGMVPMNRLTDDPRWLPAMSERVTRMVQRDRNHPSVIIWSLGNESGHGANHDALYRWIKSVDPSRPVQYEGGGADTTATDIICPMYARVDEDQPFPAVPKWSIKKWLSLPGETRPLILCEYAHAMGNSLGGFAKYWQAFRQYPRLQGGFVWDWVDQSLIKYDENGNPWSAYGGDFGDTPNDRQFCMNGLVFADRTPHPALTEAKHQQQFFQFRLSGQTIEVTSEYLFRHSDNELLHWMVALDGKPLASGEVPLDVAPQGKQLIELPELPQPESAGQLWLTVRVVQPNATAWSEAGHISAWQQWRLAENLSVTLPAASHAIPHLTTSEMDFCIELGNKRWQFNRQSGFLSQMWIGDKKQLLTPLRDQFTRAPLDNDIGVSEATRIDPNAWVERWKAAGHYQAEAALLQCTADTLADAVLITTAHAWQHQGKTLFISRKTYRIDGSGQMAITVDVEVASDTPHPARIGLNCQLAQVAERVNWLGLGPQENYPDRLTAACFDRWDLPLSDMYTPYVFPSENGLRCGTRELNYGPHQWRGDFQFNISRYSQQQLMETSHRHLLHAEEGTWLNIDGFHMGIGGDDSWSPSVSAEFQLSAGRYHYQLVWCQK

[2] = DRD fibroblast viability loss – cell-based, non-viral oncogenic, luminescence, dose response (AID 1934); assay type: functional; details: Homo sapiens
BJ [3] = assay: BJ-TERT-LT-ST fibroblast viability loss – cell-based, RAS-independent, luminescence, dose response (AID 1935); assay type: functional; details: Homo sapiens;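 also: BJ fibroblasts immortalized with TERT plus LT and ST oncogenes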
BJ [4] = assay: growth inhibition of engineered Ras-driven BJ cells – cell-based, alamar blue fluorescence, cherrypicked samples, dose response (AID 2631); assay type: functional; details: Homo sapiens;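 also: confirmatory dose-response assay in RAS-dependent BJ fibroblasts engineered with TERT, LT and ST, with cytotoxicity read by fluorescence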
[5] = viability of uninfected HEp-2 cells – cell-based, HTS, cytotoxicity control for RSV inhibitor project, dose response (AID 2410); assay type: functional; details: human respiratory syncytial virus
BJ [6] = assay: cells; assay type: functional, cell-based; details: Homo sapiens
BJ [7] = assay: BJ-TERT fibroblast viability loss – cell-based, RAS-independent, luminescence, dose response (AID 1933); assay type: functional; details: Homo sapiens
Cytochrome P450 3A4 = Cytochrome P450 3A4 (Homo sapiens, UniProt P08684);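 also: CYP3A4 tested as one member of a cytochrome P450 panel screen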
Chain of Cytochrome P450 3A4 (P08684 whole entry): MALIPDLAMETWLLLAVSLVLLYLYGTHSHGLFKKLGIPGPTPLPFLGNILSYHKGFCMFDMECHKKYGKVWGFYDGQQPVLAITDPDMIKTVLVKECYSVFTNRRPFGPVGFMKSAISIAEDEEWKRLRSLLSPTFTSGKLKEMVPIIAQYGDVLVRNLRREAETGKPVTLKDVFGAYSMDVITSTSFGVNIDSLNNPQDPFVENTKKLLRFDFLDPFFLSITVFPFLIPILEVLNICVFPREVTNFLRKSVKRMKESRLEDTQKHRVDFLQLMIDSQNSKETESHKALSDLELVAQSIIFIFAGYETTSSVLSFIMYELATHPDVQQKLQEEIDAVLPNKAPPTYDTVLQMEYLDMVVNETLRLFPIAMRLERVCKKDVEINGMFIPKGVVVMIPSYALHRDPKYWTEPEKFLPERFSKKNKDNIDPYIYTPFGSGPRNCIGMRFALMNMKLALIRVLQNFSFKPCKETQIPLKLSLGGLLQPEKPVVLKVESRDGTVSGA

Protein RecA = target: T2, Protein RecA (Mycobacterium tuberculosis, UniProt P9WHJ3); assay: Fluorescence Cell-Free Homogeneous Dose Retest to Identify Inhibitors of RecA-Intein Splicing Activity. [Related pubchem assays (depositor defined):AID2097, AID2223, AID489010, AID492950]; assay type: functional
T2 sequence (P9WHJ3 whole entry): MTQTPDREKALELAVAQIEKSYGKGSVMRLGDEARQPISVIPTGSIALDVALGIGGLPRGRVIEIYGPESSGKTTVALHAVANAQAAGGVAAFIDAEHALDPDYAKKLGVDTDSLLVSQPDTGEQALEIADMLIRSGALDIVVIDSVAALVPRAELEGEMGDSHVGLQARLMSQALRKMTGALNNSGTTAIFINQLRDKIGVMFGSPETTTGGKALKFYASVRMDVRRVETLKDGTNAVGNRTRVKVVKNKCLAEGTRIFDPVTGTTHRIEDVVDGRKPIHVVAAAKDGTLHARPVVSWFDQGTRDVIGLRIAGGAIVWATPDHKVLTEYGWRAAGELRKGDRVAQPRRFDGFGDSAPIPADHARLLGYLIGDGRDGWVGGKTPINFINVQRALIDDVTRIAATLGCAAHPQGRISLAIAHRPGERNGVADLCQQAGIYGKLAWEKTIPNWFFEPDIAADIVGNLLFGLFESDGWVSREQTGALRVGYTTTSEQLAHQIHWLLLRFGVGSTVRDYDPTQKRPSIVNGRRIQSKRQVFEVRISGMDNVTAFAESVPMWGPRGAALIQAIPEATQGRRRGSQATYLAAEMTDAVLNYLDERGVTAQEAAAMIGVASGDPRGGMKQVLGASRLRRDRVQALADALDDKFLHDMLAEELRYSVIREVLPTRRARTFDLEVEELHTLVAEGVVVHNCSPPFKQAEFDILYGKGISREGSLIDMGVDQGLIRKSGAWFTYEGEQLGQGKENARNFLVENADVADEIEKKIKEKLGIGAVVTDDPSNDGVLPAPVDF

[8] = target: T3, Replicative DNA helicase DnaB (Mycobacterium tuberculosis, UniProt P9WMR3); assay: DnaB intein splicing inhibitors, dose response, biochemical, cell-free fluorescence (AID 449749); assay type: functional
T3 sequence (P9WMR3 whole entry): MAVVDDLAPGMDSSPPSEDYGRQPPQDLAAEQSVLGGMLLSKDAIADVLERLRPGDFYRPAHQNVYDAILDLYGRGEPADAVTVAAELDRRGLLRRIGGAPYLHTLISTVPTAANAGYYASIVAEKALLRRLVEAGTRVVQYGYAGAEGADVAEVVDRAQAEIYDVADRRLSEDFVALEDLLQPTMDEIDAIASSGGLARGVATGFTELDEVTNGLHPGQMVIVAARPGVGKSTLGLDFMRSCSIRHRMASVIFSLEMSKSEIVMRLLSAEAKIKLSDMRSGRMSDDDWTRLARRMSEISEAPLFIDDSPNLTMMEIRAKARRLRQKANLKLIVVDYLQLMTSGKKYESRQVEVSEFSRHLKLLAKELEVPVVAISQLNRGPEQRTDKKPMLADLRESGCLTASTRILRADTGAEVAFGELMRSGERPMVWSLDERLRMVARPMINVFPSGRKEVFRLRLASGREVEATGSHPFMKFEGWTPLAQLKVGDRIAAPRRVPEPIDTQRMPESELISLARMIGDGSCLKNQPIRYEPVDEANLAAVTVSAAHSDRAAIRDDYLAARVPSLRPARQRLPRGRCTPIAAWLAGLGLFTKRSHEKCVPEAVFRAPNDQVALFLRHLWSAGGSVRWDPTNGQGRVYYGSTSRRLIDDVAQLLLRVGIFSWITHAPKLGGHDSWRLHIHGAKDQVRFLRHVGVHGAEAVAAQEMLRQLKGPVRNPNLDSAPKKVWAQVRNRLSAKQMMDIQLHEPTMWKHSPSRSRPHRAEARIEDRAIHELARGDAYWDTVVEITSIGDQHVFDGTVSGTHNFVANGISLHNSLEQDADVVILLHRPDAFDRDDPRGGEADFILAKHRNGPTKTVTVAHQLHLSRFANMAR

[9] = luciferase reporter signal suppression in cells – H4 neuroglioma cells, luminescence, dose response (AID 1990); assay type: functional, cell-based
INS1 = assay: INS-1E survival protection against cytokine death – cell-based, luminescence, retest, dose response (AID 449756); assay type: functional; details: Rattus norvegicus;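 also: cell death triggered by IL-1 beta plus TNF-alpha plus IFN-gamma mixture; protective hits raise ATP signal compared with cytokine alone wells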
Streptococcus = assay: GAS UMAA2166 growth inhibition – luminescence, BacTiterGlo, counter-screen for streptokinase expression inhibitor project, dose response (AID 1915); assay type: functional, organism-based;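 also: potency for reduction of bacterial viability or growth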
HEK293 = assay: EBV LMP1 TES2 canonical NF-kB signalling blockers – cell-based, HEK293, luciferase, cherry-pick, dose response (AID 588343); assay type: functional; details: Homo sapiens
[10] = Luminescence Cell-Based Dose Response HTS to Identify Inhibitors of 5'UTR Stem-Loop Driven Prion Protein mRNA Translation in H4 Neuroglioblastoma Cells. [Related pubchem assays: 1827 (Project Summary), 1813 (Primary HTS)]; assay type: functional
[11] = alpha-synuclein stem-loop luciferase translation blockers – H4 neuroglioma cells, luminescence, confirmation (AID 1988); assay type: functional, cell-based
[12] = system: Streptococcus sp. 'group A'; assay: Streptococcus pyogenes SK(-)GAS viability under kanamycin – luminescence, BacTiterGlo, confirmation, counter-screen for streptokinase expression inhibitor project, dose response (AID 1900); assay type: functional, organism-based
[13] = viability of HCT116 lacking mutant beta-catenin – cell-based, human colon tumor, dose response (AID 1045); assay type: functional;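 also: HCT116 colon tumor cells with beta catenin knocked out; cells exposed to compound for 60 hours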
[14] = viability of PTEN-deleted HCT116 cells – cell-based, HCT116 PTEN knockout, dose response (AID 1047); assay type: functional;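 also: HCT116 colon tumor cells with PTEN knocked out; cells exposed to compound for 60 hours before readout; potency for loss of cell viability measured by luminescence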

Compound	IC50 [1]	EC50 (Beta-galactosidase)	EC50 [2]	EC50 (BJ [3])	EC50 (BJ [4])	EC50 (BJ [7])	also measured
CCOc1ccc(NC2=c3c(Br)c(C)ccc3=NC2=O)cc1	7.77 µM (active)	> 40 µM (inactive)	–	–	–	–	–
COc1cc([C@H]2c3[nH]c4ccccc4c3C[C@H]3C(=O)N4[C@@H](c5cc(OC)c(OC)c(OC)c5)c5[nH]c6ccccc6c5C[C@H]4C(=O)N23)cc(OC)c1OC	–	–	5.02 µM (active)	14.3 µM (inconclusive)	> 133 µM (inactive)	3.48 µM (active)	CC50 [5]: 19.1 µM (active); EC50 (BJ [6]): > 150 µM (inconclusive)
Cc1ccc(C(=O)COC(=O)CNC(=O)C(c2ccccc2)c2ccccc2)cc1[N+](=O)[O-]	29.5 µM (not active)	> 40 µM (inactive)	–	–	–	–	AC50 (Cytochrome P450 3A4): 15.8 µM (inconclusive)
Cc1ccc(C2=NN(C(=O)CCl)C(c3ccco3)C2)o1 (stereo not drawn)	–	–	5.27 µM (active)	11.1 µM (inconclusive)	3.42 µM (active)	3.33 µM (inconclusive)	EC50 (Protein RecA): 5.58 µM (active); AC50 [8]: 30.3 µM (active)
O=C1Nc2ccccc2/C1=N/c1ccc(Br)cc1	7.4 µM (active)	> 40 µM (inactive)	–	–	–	–	–
Cc1[nH]n(-c2ccc(Br)cc2)c(=O)c1/C=N/NC(=O)c1ccccc1	–	–	–	–	–	–	EC50 [9]: 7.9 µM (active); AC50 (INS1): 0.898 µM (active); EC50 (Streptococcus): 1.92 µM (active); AC50 (HEK293): 3.72 µM (active); EC50 [10]: 26.6 µM (active); EC50 [11]: 0.889 µM (active); EC50 [12]: 0.593 µM (active)
CCCCc1c(C)c(C#N)c2nc3ccccc3n2c1Cl	–	–	2.76 µM (active)	1.75 µM (inconclusive)	0.57 µM (active)	2.22 µM (active)	EC50 [13]: 1.52 µM (active); EC50 [14]: 1.88 µM (active); EC50 (BJ [6]): 2.85 µM (active)
